Experimental data: patent publication US20080318954A1, “Compounds” (Cyclacel Limited, priority 2004, published 2008)

Columns and labels:
CDK7/cyclin H = target: T1, CDK7/cyclin H (Homo sapiens, UniProt P50613); experiment: CDK7/cyclin H inhibition constant; assay type: biochemical
T1 construct: His6 (N); made in house; host or cells: Sf9 insect cells (baculovirus)
Description: CDK4/cyclin D1, CDK1/cyclin B, CDK2/cyclin E, CDK2/cyclin A, CDK9/cyclin T1 and CDK7/cyclin H, all with a His6 tag on the N-terminus, were expressed in Sf9 insect cells using an appropriate baculovirus construct. Sf9 culture (1.6×10^6 cells/mL) was infected (MOI of 3) for two days. The cells were harvested by low speed centrifugation and the protein was purified from the insect cell pellet by metal affinity chromatography. In short: the insect cell pellet was lysed in Buffer A (10 mM Tris-HCl pH 8.0, 150 mM NaCl, 0.02% NP-40, 5 mM β-mercaptoethanol, 20 mM NaF, 1 mM Na3VO4, and Sigma Protease Inhibitor Cocktail) by sonication. The soluble fraction was cleared by centrifugation and loaded onto Ni-NTA-Agarose (Qiagen). Non-bound protein was washed off with 300 mM NaCl, 5-15 mM imidazole in buffer A and the bound protein was eluted with buffer A supplemented with 250 mM imidazole. The purified proteins were extensively dialyzed against storage buffer (20 mM HEPES pH 7.4, 50 mM NaCl, 2 mM DTT, 1 mM EDTA, 1 mM EGTA, 0.02% NP-40, 10% v/v glycerol) and stored at −70° C.
Intrinsic inhibition constants (Ki) for example compound XIV against a number of Ser/Thr kinases were determined and are summarized in Table 3.

[1] = system: glycogen synthase activity in 3T3 mouse adipocytes; experiment: Glycogen synthase (GS) assay in 3T3 mouse adipocytes; assay type: cell-based
Description: Mouse pre-adipocytes 3T3-F442A were seeded at 9×10^5 cells per 10 cm dish in DMEM 10% FCS, containing penicillin/streptomycin. When 90% confluent, the same medium was supplemented with 1 μg/mL insulin. After 3-5 days (when most cells were differentiated) insulin was removed and 4 days later the cells were ready to use.
(§1) Cells on 10 cm dishes (Human Embryonic Kidney (HEK) 293 cells, L6 rat myocytes, or 3T3 mouse adipocytes) were treated with different concentrations of GSK3-inhibitors or DMSO vehicle for 90 min. Incubation medium was removed and cells were washed with ice-cold phosphate-buffered saline (PBS) prior to lysis on ice in 50 mM HEPES, pH 7.5, 10 mM EDTA, 100 mM NaF, 5 mM DTT, protease inhibitor cocktail (Sigma). After a freeze/thaw cycle the samples are sonicated for 10 sec and centrifuged at 15,000 g for 10 min at 4° C. Lysate supernatants were snap-frozen on liquid nitrogen and stored at −80° C. Lysates were assayed for glycogen synthase activity in buffer (50 mM Tris-HCl, pH 7.8, 20 mM EDTA, 25 mM NaF, 5 mM DTT, 1% glycogen, 0.3 mM UDP-glucose and 0.06 μCi of [^14C]-UDP-glucose in the presence of 0.1 or 10 mM glucose-6-phosphate. The reaction was carried out for 30 min at 30° C. 70 μL of the reaction mixture (total volume 90 μL) were transferred to a GFC 96-well filter plate (bottom sealed with foil), containing 140 μL 96% ethanol. The GFC plate was incubated for 1 h on ice and than washed with 66% ethanol. To each well 100 μL scintillant liquid was added and the radioactivity of the samples was measured using a scintillation counter (Topcount, HP). Data are expressed as -fold increase in glycogen synthase activity ratios over those of control samples.

[2] = system: glycogen synthase activity in L6 rat myocytes; experiment: Glycogen synthase (GS) assay in L6 rat myocytes; assay type: cell-based
Description: Rat skeletal muscle myoblasts L6/G8.C5 were seeded at 2.4×10^5 cells per 10 cm dish in DMEM 10% foetal calf serum (FCS), containing penicillin/streptomycin. When 90% confluence was reached the medium was exchanged with α MEM, supplemented with 2%
FCS and penicillin/streptomycin. Medium was refreshed every 48 hours and 4-7 days later the myocytes were formed.
as §1, with “Incubation medium was removed and cells were washed with ice-cold phosphate-buffered saline (PBS) prior to lysis on ice in 50 mM HEPES, pH 7.5, 10 mM EDTA, 100 mM NaF, 5 mM DTT, protease inhibitor cocktail (Sigma). After a freeze/thaw cycle the samples are sonicated for 10 sec and centrifuged at 15,000 g for 10 min at 4° C. Lysate supernatants were snap-frozen on liquid nitrogen and stored at −80° C.” left out

MAPK2/ERK2 = target: T2, MAPK2/ERK2 (Homo sapiens, UniProt P28482); experiment: Protein kinase panel selectivity screen, MAPK2/ERK2; assay type: biochemical; details: 1 μM compound; [ATP] 50 μM
T2 construct: Dundee University (panel)
Description: (§2) The names of the 29 kinases comprising the selectivity screen, as well as the ATP concentrations used in each kinase case, are given in Table 5. The kinase assays were carried out as described previously.
(§3) Compound XIV at a concentration of 1 μM was screened in the 29-kinase panel (Dundee University) and the results are shown bellow in Table 6.

SAPK2b/p38b2 = target: T3, SAPK2b/p38b2 (Homo sapiens, UniProt Q15759); experiment: Protein kinase panel selectivity screen, SAPK2b/p38b2; assay type: biochemical; details: 1 μM compound; [ATP] 20 μM
T3 construct: Dundee University (panel)
Description: as §2, §3

SAPK3/p38g = target: T4, SAPK3/p38g (Homo sapiens, UniProt P53778); experiment: Protein kinase panel selectivity screen, SAPK3/p38g; assay type: biochemical; details: 1 μM compound; [ATP] 5 μM
T4 construct: Dundee University (panel)
Description: as §2, §3

PKA = experiment: Protein kinase panel selectivity screen, PKA; assay type: biochemical; details: 1 μM compound; [ATP] 5 μM
Description: as §2, §3

p70S6K = experiment: Protein kinase panel selectivity screen, p70S6K; assay type: biochemical; details: 1 μM compound; [ATP] 20 μM
Description: as §2, §3

GSK3b = target: T5, GSK3b (Homo sapiens, UniProt P49841); experiment: Protein kinase panel selectivity screen, GSK3b; assay type: biochemical; details: 1 μM compound
T5 construct: Dundee University (panel)
Description: as §2, §3

ROCK-II = experiment: Protein kinase panel selectivity screen, ROCK-II; assay type: biochemical; details: 1 μM compound; [ATP] 20 μM
Description: as §2, §3

CK1 = experiment: Protein kinase panel selectivity screen, CK1; assay type: biochemical; details: 1 μM compound; [ATP] 20 μM
Description: as §2, §3

T5 sequence (P49841 whole entry, species assumed): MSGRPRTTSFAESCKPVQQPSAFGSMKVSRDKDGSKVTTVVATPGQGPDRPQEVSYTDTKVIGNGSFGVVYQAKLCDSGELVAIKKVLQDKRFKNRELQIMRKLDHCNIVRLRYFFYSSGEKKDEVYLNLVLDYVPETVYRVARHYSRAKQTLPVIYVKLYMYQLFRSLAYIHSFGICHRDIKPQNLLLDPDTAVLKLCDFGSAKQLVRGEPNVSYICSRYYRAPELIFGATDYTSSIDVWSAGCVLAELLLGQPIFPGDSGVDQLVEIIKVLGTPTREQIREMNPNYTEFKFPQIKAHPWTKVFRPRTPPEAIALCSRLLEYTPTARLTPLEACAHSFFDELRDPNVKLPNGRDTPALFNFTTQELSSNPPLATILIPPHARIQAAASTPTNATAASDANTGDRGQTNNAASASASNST
T1 sequence (P50613 whole entry, species assumed): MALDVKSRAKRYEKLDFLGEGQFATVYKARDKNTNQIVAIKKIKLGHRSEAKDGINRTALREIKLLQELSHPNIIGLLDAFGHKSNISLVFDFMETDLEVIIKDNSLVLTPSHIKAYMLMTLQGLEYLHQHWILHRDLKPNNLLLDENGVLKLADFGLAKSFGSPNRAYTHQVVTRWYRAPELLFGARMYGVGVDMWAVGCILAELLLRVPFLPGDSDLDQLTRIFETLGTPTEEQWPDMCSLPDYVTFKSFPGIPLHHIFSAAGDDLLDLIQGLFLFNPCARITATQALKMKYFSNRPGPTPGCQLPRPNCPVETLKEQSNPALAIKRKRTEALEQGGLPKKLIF
T1 sequence (P51946 whole entry partner, species assumed): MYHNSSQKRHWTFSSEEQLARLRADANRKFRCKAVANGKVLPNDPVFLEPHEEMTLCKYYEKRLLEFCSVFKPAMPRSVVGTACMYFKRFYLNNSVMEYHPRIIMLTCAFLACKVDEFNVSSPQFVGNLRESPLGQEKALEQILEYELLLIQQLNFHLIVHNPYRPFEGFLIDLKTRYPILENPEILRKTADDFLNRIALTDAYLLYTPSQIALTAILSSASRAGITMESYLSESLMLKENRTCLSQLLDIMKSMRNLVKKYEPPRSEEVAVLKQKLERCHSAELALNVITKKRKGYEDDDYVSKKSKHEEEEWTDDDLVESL
T3 sequence (Q15759 whole entry): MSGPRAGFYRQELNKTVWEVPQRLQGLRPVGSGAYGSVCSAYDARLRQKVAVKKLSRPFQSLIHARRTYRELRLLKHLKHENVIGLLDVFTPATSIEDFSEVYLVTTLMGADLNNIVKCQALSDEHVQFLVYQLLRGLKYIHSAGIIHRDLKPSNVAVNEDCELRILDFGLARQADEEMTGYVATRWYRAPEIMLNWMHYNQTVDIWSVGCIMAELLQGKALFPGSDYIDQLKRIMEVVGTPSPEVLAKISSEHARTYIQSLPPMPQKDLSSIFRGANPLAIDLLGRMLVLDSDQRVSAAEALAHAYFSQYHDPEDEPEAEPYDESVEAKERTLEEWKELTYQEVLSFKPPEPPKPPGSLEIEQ
T2 sequence (P28482 whole entry): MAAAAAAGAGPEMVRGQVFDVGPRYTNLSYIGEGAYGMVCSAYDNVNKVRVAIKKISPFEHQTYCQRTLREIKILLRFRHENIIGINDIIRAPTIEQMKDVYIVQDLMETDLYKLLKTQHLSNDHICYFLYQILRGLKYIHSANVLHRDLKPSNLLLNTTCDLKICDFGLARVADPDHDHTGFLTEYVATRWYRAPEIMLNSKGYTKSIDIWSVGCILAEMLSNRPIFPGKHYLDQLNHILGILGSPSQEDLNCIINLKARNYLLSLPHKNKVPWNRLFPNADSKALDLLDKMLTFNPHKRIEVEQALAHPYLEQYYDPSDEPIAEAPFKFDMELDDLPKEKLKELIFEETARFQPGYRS
T4 sequence (P53778 whole entry): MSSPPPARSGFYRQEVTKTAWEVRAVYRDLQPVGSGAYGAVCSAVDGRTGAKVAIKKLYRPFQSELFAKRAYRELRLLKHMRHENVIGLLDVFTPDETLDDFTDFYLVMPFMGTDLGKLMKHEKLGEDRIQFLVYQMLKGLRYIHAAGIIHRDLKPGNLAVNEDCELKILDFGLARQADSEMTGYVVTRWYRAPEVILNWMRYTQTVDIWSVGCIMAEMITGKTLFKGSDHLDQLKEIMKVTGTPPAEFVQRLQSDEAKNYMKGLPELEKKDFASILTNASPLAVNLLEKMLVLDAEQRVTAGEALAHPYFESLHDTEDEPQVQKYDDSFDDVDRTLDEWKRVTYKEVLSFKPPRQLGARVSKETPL

Clc1ccc(Nc2nccc(-c3nccs3)n2)cn1 [Compound XIV, (6-Chloro-pyridin-3-yl)-(4-thiazol-2-yl-pyrimidin-2-yl)-amine]
Ki (CDK7/cyclin H): > 50 µM | Fold selectivity for GSK3 over CDK7/cyclin H (CDK7/cyclin H; from Ki): >3,125 fold | Activation of GS relative to that induced by 40 mM LiCl ([1]; 3T3 adipocytes, 5 μM): approximately 2 fold | EC50 ([1]; Mus musculus, Adipocyte, 3T3 adipocytes, from dose-response curves, read-out: EC50 activation of glycogen synthase): 5 ± 2.3 µM | fold induction at 0.2 µM ([1]; Mus musculus, NIH3T3, 3T3 cells, 0.2 μM): 1.1 | fold induction at 1 µM ([1]; Mus musculus, NIH3T3, 3T3 cells, 1 μM): 2.5 | fold induction at 5 µM ([1]; Mus musculus, NIH3T3, 3T3 cells, 5 μM): 3.7 | fold induction at 10 µM ([1]; Mus musculus, NIH3T3, 3T3 cells, 10 μM): 4.8 | Activity of glycogen synthase (fractional velocity) ([1]; mouse adipocyte cells, ratio of activity at 0.1 and 10 mM glucose-6-phosphate): increased the activity of glycogen synthase | EC50 ([2]; Rattus norvegicus, L6 myocytes, from dose-response curves, read-out: EC50 activation of glycogen synthase): 4 ± 1.5 µM | Activity of glycogen synthase (fractional velocity) ([2]; rat myocyte cells, ratio of activity at 0.1 and 10 mM glucose-6-phosphate): increased the activity of glycogen synthase | activity at 1 µM (MAPK2/ERK2): 84 ± 8% | activity at 1 µM (SAPK2b/p38b2): 92 ± 4% | activity at 1 µM (SAPK3/p38g): 88 ± 3% | % Activity PKA (PKA): 76 ± 3% | % Activity p70S6K (p70S6K): 91 ± 2% | Selectivity in the 29-kinase panel (GSK3b): highly selective for GSK3 | activity at 1 µM (GSK3b; [ATP] 5 μM): 13 ± 5% | % Activity ROCK-II (ROCK-II): 87 ± 6% | % Activity CK1 (CK1): 69 ± 1%
